pIC50: −log10 of the molar value. Where “and” joins values, the source holds several entries; their conditions need not be identical. Identical values can stand only once.
Key:
SfurOBP1 = SfurOBP1 (Sogatella furcifera, UniProt V5T8N5); assay: biochemical; format: binding; conditions: for Fluorescence competitive binding assay, fluorescence intensity: OBP1, three replicate columns
Procedure, shortened: (§1)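 In 50 mM Tris-HCl pH 7.4, odorants displace 1-NPN (2.0 µM) from 2.0 µM protein. Emission at 390–490 nm under 337 nm excitation is measured 2 min after competitor addition, in triplicate. Ki is obtained from IC50 and the 1-NPN dissociation constant.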

SfurOBP11 = SfurOBP11 (Sogatella furcifera, UniProt V5T6E3); assay: biochemical; format: binding
Procedure, shortened: as §1

SfurOBP2 = SfurOBP2 (Sogatella furcifera, UniProt V5T759); assay: biochemical; format: binding
Procedure, shortened: as §1

SfurOBP3 = SfurOBP3 (Sogatella furcifera, UniProt V5T818); assay: biochemical; format: binding; conditions: for Fluorescence competitive binding assay, fluorescence intensity: OBP3, three replicate columns;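 for Fluorescence competitive binding assay, fluorescence intensity: competitor odorant at 2 to 20 µM with protein and 1-NPN both 2.0 µM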
Procedure, shortened: as §1

S. furcifera adults = assay: Y-tube olfactometer behavioral trials; format: in vivo, Sogatella furcifera; conditions: odorant 50 µL/L vs hexane; adults
Procedure, shortened: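 Single S. furcifera adults (2 days post-emergence, starved 0.5 h) chose between odorant (100 µL of 50 µL/L on filter paper) and hexane control in a glass Y-tube, charcoal-filtered humidified air 300 mL/min per arm, 25 ± 1 °C, 50% RH. Choice scored if insect passed half an arm and stayed >1 min within 10 min; 45 insects per compound, chi-squared test.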
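Throughout, for Fluorescence competitive binding assay, fluorescence intensity: competitor odorant at 2 to 20 µM with protein and 1-NPN both 2.0 µM.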

SfurOBP3, sequence (V5T818 entry or part of it): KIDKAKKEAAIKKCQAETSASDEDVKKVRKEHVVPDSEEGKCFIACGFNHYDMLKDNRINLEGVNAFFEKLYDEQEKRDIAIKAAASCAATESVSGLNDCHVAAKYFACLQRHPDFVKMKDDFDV
SfurOBP2, sequence (V5T759 entry or part of it): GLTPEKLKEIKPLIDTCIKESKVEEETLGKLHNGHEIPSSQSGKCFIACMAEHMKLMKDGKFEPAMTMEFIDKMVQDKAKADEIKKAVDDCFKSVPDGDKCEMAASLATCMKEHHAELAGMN
SfurOBP1, sequence (V5T8N5 entry or part of it): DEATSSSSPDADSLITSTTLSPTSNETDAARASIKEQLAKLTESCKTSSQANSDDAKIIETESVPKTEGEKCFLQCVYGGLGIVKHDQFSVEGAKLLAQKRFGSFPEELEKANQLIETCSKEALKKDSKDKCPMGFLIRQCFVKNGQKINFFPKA
SfurOBP11, sequence (V5T6E3 entry or part of it): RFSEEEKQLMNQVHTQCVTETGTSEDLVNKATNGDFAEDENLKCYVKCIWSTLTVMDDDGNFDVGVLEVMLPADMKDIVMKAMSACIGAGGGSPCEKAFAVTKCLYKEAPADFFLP

CC/C=C\CCO [(Z)-3-hexenol]
pIC50 (SfurOBP1): < 4.70
Fluorescence competitive binding assay, fluorescence intensity (SfurOBP1; ligand concentration 2 (μM)): 6275 and 5762 and 6097
Fluorescence competitive binding assay, fluorescence intensity (SfurOBP1; ligand concentration 4 (μM)): 7853 and 8652 and 8403
Fluorescence competitive binding assay, fluorescence intensity (SfurOBP1; ligand concentration 6 (μM)): 6992 and 6382 and 6355
Fluorescence competitive binding assay, fluorescence intensity (SfurOBP1; ligand concentration 8 (μM)): 6419 and 7196 and 6808
Fluorescence competitive binding assay, fluorescence intensity (SfurOBP1; ligand concentration 10 (μM)): 6561 and 6490 and 6439
Fluorescence competitive binding assay, fluorescence intensity (SfurOBP1; ligand concentration 12 (μM)): 6242 and 6220 and 5811
Fluorescence competitive binding assay, fluorescence intensity (SfurOBP1; ligand concentration 14 (μM)): 5437 and 6035 and 6831
Fluorescence competitive binding assay, fluorescence intensity (SfurOBP1; ligand concentration 16 (μM)): 6974 and 6042 and 5510
Fluorescence competitive binding assay, fluorescence intensity (SfurOBP1; ligand concentration 18 (μM)): 6021 and 6159 and 6506
Fluorescence competitive binding assay, fluorescence intensity (SfurOBP1; ligand concentration 20 (μM)): 6648 and 5435 and 5963
pIC50 (SfurOBP11): 4.71
Fluorescence intensity, fluorescence competitive binding assay, OBP11 (SfurOBP11; ligand concentration 2, replicate 1): 23102
Fluorescence intensity, fluorescence competitive binding assay, OBP11 (SfurOBP11; ligand concentration 2, replicate 2): 23122
Fluorescence intensity, fluorescence competitive binding assay, OBP11 (SfurOBP11; ligand concentration 2, replicate 3): 23081
Fluorescence intensity, fluorescence competitive binding assay, OBP11 (SfurOBP11; ligand concentration 4, replicate 1): 21959
Fluorescence intensity, fluorescence competitive binding assay, OBP11 (SfurOBP11; ligand concentration 4, replicate 2): 22135
Fluorescence intensity, fluorescence competitive binding assay, OBP11 (SfurOBP11; ligand concentration 4, replicate 3): 21783
Fluorescence intensity, fluorescence competitive binding assay, OBP11 (SfurOBP11; ligand concentration 6, replicate 1): 21447
Fluorescence intensity, fluorescence competitive binding assay, OBP11 (SfurOBP11; ligand concentration 6, replicate 2): 20794
Fluorescence intensity, fluorescence competitive binding assay, OBP11 (SfurOBP11; ligand concentration 6, replicate 3): 21118
Fluorescence intensity, fluorescence competitive binding assay, OBP11 (SfurOBP11; ligand concentration 8, replicate 1): 18781
Fluorescence intensity, fluorescence competitive binding assay, OBP11 (SfurOBP11; ligand concentration 8, replicate 2): 21016
Fluorescence intensity, fluorescence competitive binding assay, OBP11 (SfurOBP11; ligand concentration 8, replicate 3): 21554
Fluorescence intensity, fluorescence competitive binding assay, OBP11 (SfurOBP11; ligand concentration 10, replicate 1): 18621
Fluorescence intensity, fluorescence competitive binding assay, OBP11 (SfurOBP11; ligand concentration 10, replicate 2): 21154
Fluorescence intensity, fluorescence competitive binding assay, OBP11 (SfurOBP11; ligand concentration 10, replicate 3): 19973
Fluorescence intensity, fluorescence competitive binding assay, OBP11 (SfurOBP11; ligand concentration 12, replicate 1): 17455
Fluorescence intensity, fluorescence competitive binding assay, OBP11 (SfurOBP11; ligand concentration 12, replicate 2): 20348
Fluorescence intensity, fluorescence competitive binding assay, OBP11 (SfurOBP11; ligand concentration 12, replicate 3): 19925
Fluorescence intensity, fluorescence competitive binding assay, OBP11 (SfurOBP11; ligand concentration 14, replicate 1): 17235
Fluorescence intensity, fluorescence competitive binding assay, OBP11 (SfurOBP11; ligand concentration 14, replicate 2): 18458
Fluorescence intensity, fluorescence competitive binding assay, OBP11 (SfurOBP11; ligand concentration 14, replicate 3): 18680
Fluorescence intensity, fluorescence competitive binding assay, OBP11 (SfurOBP11; ligand concentration 16, replicate 1): 16257
Fluorescence intensity, fluorescence competitive binding assay, OBP11 (SfurOBP11; ligand concentration 16, replicate 2): 15961
Fluorescence intensity, fluorescence competitive binding assay, OBP11 (SfurOBP11; ligand concentration 16, replicate 3): 16778
Fluorescence intensity, fluorescence competitive binding assay, OBP11 (SfurOBP11; ligand concentration 18, replicate 1): 15893
Fluorescence intensity, fluorescence competitive binding assay, OBP11 (SfurOBP11; ligand concentration 18, replicate 2): 16090
Fluorescence intensity, fluorescence competitive binding assay, OBP11 (SfurOBP11; ligand concentration 18, replicate 3): 15799
Fluorescence intensity, fluorescence competitive binding assay, OBP11 (SfurOBP11; ligand concentration 20, replicate 1): 15616
Fluorescence intensity, fluorescence competitive binding assay, OBP11 (SfurOBP11; ligand concentration 20, replicate 2): 15707
Fluorescence intensity, fluorescence competitive binding assay, OBP11 (SfurOBP11; ligand concentration 20, replicate 3): 14975
pIC50 (SfurOBP2): < 4.70
Fluorescence competitive binding assay, OBP2 (raw fluorescence reading) (SfurOBP2; ligand concentration 2 (unit not given), replicate column 1 of 3): 19770
Fluorescence competitive binding assay, OBP2 (raw fluorescence reading) (SfurOBP2; ligand concentration 2 (unit not given), replicate column 2 of 3): 19248
Fluorescence competitive binding assay, OBP2 (raw fluorescence reading) (SfurOBP2; ligand concentration 2 (unit not given), replicate column 3 of 3): 18506
Fluorescence competitive binding assay, OBP2 (raw fluorescence reading) (SfurOBP2; ligand concentration 4 (unit not given), replicate column 1 of 3): 19551
Fluorescence competitive binding assay, OBP2 (raw fluorescence reading) (SfurOBP2; ligand concentration 4 (unit not given), replicate column 2 of 3): 19781
Fluorescence competitive binding assay, OBP2 (raw fluorescence reading) (SfurOBP2; ligand concentration 4 (unit not given), replicate column 3 of 3): 18404
Fluorescence competitive binding assay, OBP2 (raw fluorescence reading) (SfurOBP2; ligand concentration 6 (unit not given), replicate column 1 of 3): 19561
Fluorescence competitive binding assay, OBP2 (raw fluorescence reading) (SfurOBP2; ligand concentration 6 (unit not given), replicate column 2 of 3): 18769
Fluorescence competitive binding assay, OBP2 (raw fluorescence reading) (SfurOBP2; ligand concentration 6 (unit not given), replicate column 3 of 3): 17857
Fluorescence competitive binding assay, OBP2 (raw fluorescence reading) (SfurOBP2; ligand concentration 8 (unit not given), replicate column 1 of 3): 18896
Fluorescence competitive binding assay, OBP2 (raw fluorescence reading) (SfurOBP2; ligand concentration 8 (unit not given), replicate column 2 of 3): 18816
Fluorescence competitive binding assay, OBP2 (raw fluorescence reading) (SfurOBP2; ligand concentration 8 (unit not given), replicate column 3 of 3): 16878
Fluorescence competitive binding assay, OBP2 (raw fluorescence reading) (SfurOBP2; ligand concentration 10 (unit not given), replicate column 1 of 3): 17416
Fluorescence competitive binding assay, OBP2 (raw fluorescence reading) (SfurOBP2; ligand concentration 10 (unit not given), replicate column 2 of 3): 17439
Fluorescence competitive binding assay, OBP2 (raw fluorescence reading) (SfurOBP2; ligand concentration 10 (unit not given), replicate column 3 of 3): 16747
Fluorescence competitive binding assay, OBP2 (raw fluorescence reading) (SfurOBP2; ligand concentration 12 (unit not given), replicate column 1 of 3): 16106
Fluorescence competitive binding assay, OBP2 (raw fluorescence reading) (SfurOBP2; ligand concentration 12 (unit not given), replicate column 2 of 3): 16534
Fluorescence competitive binding assay, OBP2 (raw fluorescence reading) (SfurOBP2; ligand concentration 12 (unit not given), replicate column 3 of 3): 16305
Fluorescence competitive binding assay, OBP2 (raw fluorescence reading) (SfurOBP2; ligand concentration 14 (unit not given), replicate column 1 of 3): 14820
Fluorescence competitive binding assay, OBP2 (raw fluorescence reading) (SfurOBP2; ligand concentration 14 (unit not given), replicate column 2 of 3): 14819
Fluorescence competitive binding assay, OBP2 (raw fluorescence reading) (SfurOBP2; ligand concentration 14 (unit not given), replicate column 3 of 3): 14820
Fluorescence competitive binding assay, OBP2 (raw fluorescence reading) (SfurOBP2; ligand concentration 16 (unit not given), replicate column 1 of 3): 13168
Fluorescence competitive binding assay, OBP2 (raw fluorescence reading) (SfurOBP2; ligand concentration 16 (unit not given), replicate column 2 of 3): 12294
Fluorescence competitive binding assay, OBP2 (raw fluorescence reading) (SfurOBP2; ligand concentration 16 (unit not given), replicate column 3 of 3): 13106
Fluorescence competitive binding assay, OBP2 (raw fluorescence reading) (SfurOBP2; ligand concentration 18 (unit not given), replicate column 1 of 3): 12788
Fluorescence competitive binding assay, OBP2 (raw fluorescence reading) (SfurOBP2; ligand concentration 18 (unit not given), replicate column 2 of 3): 12466
Fluorescence competitive binding assay, OBP2 (raw fluorescence reading) (SfurOBP2; ligand concentration 18 (unit not given), replicate column 3 of 3): 12554
Fluorescence competitive binding assay, OBP2 (raw fluorescence reading) (SfurOBP2; ligand concentration 20 (unit not given), replicate column 1 of 3): 12993
Fluorescence competitive binding assay, OBP2 (raw fluorescence reading) (SfurOBP2; ligand concentration 20 (unit not given), replicate column 2 of 3): 12815
Fluorescence competitive binding assay, OBP2 (raw fluorescence reading) (SfurOBP2; ligand concentration 20 (unit not given), replicate column 3 of 3): 12410
pIC50 (SfurOBP3): < 4.70
Fluorescence competitive binding assay, fluorescence intensity (SfurOBP3; ligand concentration 2): 48626 and 49734 and 49512
Fluorescence competitive binding assay, fluorescence intensity (SfurOBP3; ligand concentration 4): 45649 and 45958 and 42870
Fluorescence competitive binding assay, fluorescence intensity (SfurOBP3; ligand concentration 6): 41915 and 48260 and 45013
Fluorescence competitive binding assay, fluorescence intensity (SfurOBP3; ligand concentration 8): 45442 and 45656 and 45548
Fluorescence competitive binding assay, fluorescence intensity (SfurOBP3; ligand concentration 10): 40904 and 43831 and 42892
Fluorescence competitive binding assay, fluorescence intensity (SfurOBP3; ligand concentration 12): 41218 and 40601 and 40113
Fluorescence competitive binding assay, fluorescence intensity (SfurOBP3; ligand concentration 14): 34957 and 35609 and 37985
Fluorescence competitive binding assay, fluorescence intensity (SfurOBP3; ligand concentration 16): 33728 and 34170 and 34618
Fluorescence competitive binding assay, fluorescence intensity (SfurOBP3; ligand concentration 18): 37828 and 32491 and 33581
Fluorescence competitive binding assay, fluorescence intensity (SfurOBP3; ligand concentration 20): 33910 and 32414 and 29949
number of insects choosing hexane arm (S. furcifera adults): 13
number of insects choosing volatilies arm (S. furcifera adults): 13
number of insects failed (no choice) (S. furcifera adults): 14

From paper PMC6409085, “Three odorant-binding proteins are involved in the behavioral response of Sogatella furcifera to rice plant volatiles” (PeerJ, 2019)
